According to US11129827B2 (priority 2017, dated 2021):
Where two headings read alike, the source gives them in different places.

Legend:
FAAH [1] = target: FAAH (Homo sapiens (Human), UniProt O00519); experiment: biochemical; settings: for inhibition at 1 µM: read-out: FAAH (human) % inh. 1 μM
MAGL [2] = target: MAGL (Homo sapiens (Human), UniProt Q99685); experiment: biochemical; settings: for inhibition at 1 µM: read-out: MAGL (human) % inh. 1 μM
FAAH [3] = target: FAAH (Mus musculus (Mouse), UniProt O08914); experiment: in vivo; settings: po, read-out: FAAH (mouse) % inh. 5 mg/kg
MAGL [4] = target: MAGL (Mus musculus (Mouse), UniProt O35678); experiment: in vivo; settings: po, read-out: MAGL (mouse) % inh. 5 mg/kg

Row | SMILES | inhibition at 1 µM (FAAH [1]) | IC50 (FAAH [1]; read-out: FAAH (human) IC50) | inhibition at 1 µM (MAGL [2]) | IC50 (MAGL [2]; read-out: MAGL (human) IC50) | inhibition at 5 mg/kg (FAAH [3]) | inhibition at 5 mg/kg (MAGL [4]) | IC50 (FAAH [1]) | IC50 (MAGL [2])
1 | NC(=O)c1cncc(OC(=O)N2CCC3(CCN(Cc4cc(Cl)ccc4C(F)(F)F)C3)CC2)c1 [Example 4, 5-Carbamoylpyridin-3-yl 2-(5-chloro-2-(trifluoromethyl)benzyl)-2,8-diazaspiro[4.5]decane-8-carboxylate] | > 75% | < 100 nM | > 75% | < 100 nM | > 75% | > 75% |  | 
2 | O=C(Oc1cncc(C(F)(F)F)c1)N1CCC2(CC1)CN(Cc1cccc(Oc3nc4ccccc4s3)c1)C2 [Example 7, 5-(Trifluoromethyl)pyridin-3-yl 2-(3-(benzo[d]thiazol-2-yloxy)benzyl)-2,7-diazaspiro[3.5]nonane-7-carboxylate] | > 75% | < 100 nM | > 75% | < 100 nM | > 75% | 25 to 50% |  | 
3 | CC(C)Oc1cc(CN2CCN(C(=O)Oc3cncc(NS(C)(=O)=O)c3)CC2)ccc1Cl [Example 15, 5-(Methylsulfonamido)pyridin-3-yl 4-(4-chloro-3-isopropoxybenzyl)piperazine-1-carboxylate] | > 75% |  | > 75% | 100 to 1000 nM | 0 to 25% | 0 to 25% | < 100 nM | 
4 | CC(C)Oc1ccc(CN2CCN(C(=O)Oc3cncc(C(N)=O)c3)CC2)c(OC(F)(F)F)c1 [Example 18, 5-Carbamoylpyridin-3-yl 4-(4-isopropoxy-2-(trifluoromethoxy)benzyl)piperazine-1-carboxylate] | > 75% | 100 to 1000 nM | > 75% | 100 to 1000 nM | > 75% | > 75% |  | 
5 | C[C@@H]1CN(Cc2cc(F)cc(C(F)(F)F)c2)CCN1C(=O)Oc1cncc(C(N)=O)c1 [Example 20, 5-Carbamoylpyridin-3-yl (R)-4-(3-fluoro-5-(trifluoromethyl)benzyl)-2-methylpiperazine-1-carboxylate] | > 75% | < 100 nM | > 75% | < 100 nM | > 75% | > 75% |  | 
6 | NC(=O)c1cncc(OC(=O)N2CCC3(CCN(Cc4ccc(Cl)c(Cl)c4)C3)CC2)c1 [Example 36, 5-Carbamoylpyridin-3-yl 2-(3,4-dichlorobenzyl)-2,8-diazaspiro[4.5]decane-8-carboxylate] | > 75% | < 100 nM | > 75% | < 100 nM | > 75% | 25 to 50% |  | 
7 | O=C(Oc1cncc(C(F)(F)F)c1)N1CCC2(CC1)CN(Cc1cccc(Oc3cncc(C(F)(F)F)c3)c1)C2 [Example 38, 5-(Trifluoromethyl)pyridin-3-yl 2-(3-((5-(trifluoromethyl)pyridin-3-yl)oxy)benzyl)-2,7-diazaspiro[3.5]nonane-7-carboxylate] | > 75% | < 100 nM | > 75% | < 100 nM | > 75% | 0 to 25% |  | 
8 | O=C(Oc1cncc(C(F)(F)F)c1)N1CCC2(CC1)CN(Cc1cccc(Oc3cccc(Cl)c3)c1Cl)C2 [Example 40, 5-(Trifluoromethyl)pyridin-3-yl 2-(2-chloro-3-(3-chlorophenoxy)benzyl)-2,7-diazaspiro[3.5]nonane-7-carboxylate] | > 75% | 100 to 1000 nM | > 75% |  |  |  |  | < 100 nM
9 | O=C(Oc1cncc(C(F)(F)F)c1)N1CCC2(CC1)CN(Cc1cccc(Oc3ccccc3)c1Cl)C2 [Example 41, 5-(Trifluoromethyl)pyridin-3-yl 2-(2-chloro-3-phenoxybenzyl)-2,7-diazaspiro[3.5]nonane-7-carboxylate] | > 75% |  | > 75% |  |  |  |  | 
10 | O=C(Oc1cncc(C(F)(F)F)c1)N1CCN(Cc2cc(Cl)ccc2C(F)(F)F)CC1 [Example 44, 5-(Trifluoromethyl)pyridin-3-yl 4-(5-chloro-2-(trifluoromethyl)benzyl)piperazine-1-carboxylate] | > 75% | 100 to 1000 nM | > 75% | 100 to 1000 nM |  |  |  | 
11 | N#Cc1cncc(OC(=O)N2CCN(Cc3cccc(Oc4ncccn4)c3)CC2)c1 [Example 50, 5-Cyanopyridin-3-yl 4-(3-(pyrimidin-2-yloxy)benzyl)piperazine-1-carboxylate] | > 75% | 100 to 1000 nM | > 75% |  |  |  |  | < 100 nM
12 | CC(=O)Nc1cncc(OC(=O)N2CCN(Cc3ccc(Cl)c(OC(C)C)c3)CC2)c1 [Example 52, 5-Acetamidopyridin-3-yl 4-(4-chloro-3-isopropoxybenzyl)pipera-zine-1-carboxylate] | > 75% | 100 to 1000 nM | > 75% |  | > 75% | 0 to 25% |  | < 100 nM
13 | CC(C)Oc1cc(CN2CCN(C(=O)Oc3cncc(C(N)=O)c3)[C@H](C)C2)ccc1Cl [Example 56, (R)-5-Carbamoylpyridin-3-yl 4-(4-chloro-3-isopropoxybenzyl)-2-methylpiperazine-1-carboxylate] | > 75% | 100 to 1000 nM | > 75% | 100 to 1000 nM |  |  |  | 
14 | Cc1c(CN2CCN(C(=O)Oc3cncc(C(N)=O)c3)[C@H](C)C2)cccc1C(F)(F)F [Example 58, (R)-5-Carbamoylpyridin-3-yl 2-methyl-4-(2-methyl-3-(trifluoromethyl)benzyl)piperazine-1-carboxylate] | > 75% |  | > 75% | 100 to 1000 nM |  |  | < 100 nM | 
15 | Cc1c(CN2CCN(C(=O)Oc3cncc(C(N)=O)c3)[C@@H](C)C2)cccc1C(F)(F)F [Example 59, (S)-5-Carbamoylpyridin-3-yl 2-methyl-4-(2-methyl-3-(trifluoromethyl)benzyl)piperazine-1-carboxylate] | 50 to 75% |  | > 75% |  |  |  |  | 
16 | C[C@@H]1CN(Cc2cc(Cl)cc(C(F)(F)F)c2)CCN1C(=O)Oc1cncc(C(N)=O)c1 [Example 65, (R)-5-Carbamoylpyridin-3-yl 4-(3-chloro-5-(trifluoromethyl)benzyl)-2-methylpiperazine-1-carboxylate] | > 75% | 100 to 1000 nM | > 75% | 100 to 1000 nM | > 75% | > 75% |  | 
17 | C[C@@H]1CN(Cc2cccc(C(F)(F)F)c2Cl)CCN1C(=O)Oc1cncc(C(N)=O)c1 [Example 66, (R)-5-Carbamoylpyridin-3-yl 4-(2-chloro-3-(trifluoromethyl)benzyl)-2-methylpiperazine-1-carboxylate] | > 75% | < 100 nM | > 75% | < 100 nM |  |  |  | 
18 | C[C@@H]1CN(Cc2cccc(OC(F)(F)F)c2)CCN1C(=O)Oc1cncc(C(N)=O)c1 [Example 74, (R)-5-Carbamoylpyridin-3-yl 2-methyl-4-(3-(trifluoromethoxy)benzyl)piperazine-1-carboxylate] | > 75% |  | 25 to 50% | 100 to 1000 nM | > 75% | > 75% | < 100 nM | 
19 | Cc1c(OC(=O)N2CCN(Cc3cccc(C(F)(F)F)c3C)C[C@H]2C)cncc1C(N)=O [Example 82, 5-Carbamoyl-4-methylpyridin-3-yl (R)-2-methyl-4-(2-methyl-3-(trifluoromethyl)benzyl)piperazine-1-carboxylate] | > 75% |  | 0 to 25% |  |  |  |  | 
20 | Cc1c(C#N)cncc1OC(=O)N1CCN(Cc2cccc(C(F)(F)F)c2C)C[C@H]1C [Example 83, 5-Cyano-4-methylpyridin-3-yl (R)-2-methyl-4-(2-methyl-3-(trifluoromethyl)benzyl)piperazine-1-carboxylate] | > 75% |  | > 75% | 100 to 1000 nM |  |  | < 100 nM | 
21 | C[C@@H]1CN(Cc2cccc(Oc3ncccn3)c2)CCN1C(=O)Oc1cncc(C#N)c1 [Example 84, 5-Cyanopyridin-3-yl (R)-2-methyl-4-(3-(pyrimidin-2-yloxy)benzyl)piperazine-1-carboxylate] | > 75% | 100 to 1000 nM | > 75% |  |  |  |  | < 100 nM
22 | C[C@@H]1CN(Cc2cc(Cl)cc(Oc3ncccn3)c2)CCN1C(=O)Oc1cncc(C#N)c1 [Example 86, 5-Cyanopyridin-3-yl (R)-4-(3-chloro-5-(pyrimidin-2-yloxy)benzyl)-2-methylpiperazine-1-carboxylate] | > 75% |  | > 75% |  | > 75% | > 75% | < 100 nM | 100 to 1000 nM
